# Reference: patent publication US20260209189A1, “ISOXAZOLINE-SUBSTITUTED BENZAMIDE COMPOUND AND APPLICATION THEREOF” (priority 2022, published 2026)
# Experiments:
# Type in all cases: in vivo
# [1] = test system: Spodoptera frugiperda; test: Insecticidal activity assay, corn leaf dip, 3rd instar larvae; conditions: liquid concentration 0.3 ppm, 48 h
# Procedure: (§1) The compound of the present invention was dissolved in acetone, and then diluted with water into liquids with gradients of different concentrations (ppm). Corn leaves were soaked in liquids of different concentrations for about 20 seconds, air-dried and then placed in petri dishes where 3rd instar Spodoptera frugiperda were placed, respectively; kale leaves were soaked in liquids of different concentrations for about 20 seconds, air-dried and then placed in petri dishes where 3rd instar Spodoptera frugiperda were placed, respectively; peanut leaves were soaked in liquids of different concentrations for about 20 seconds, air-dried and then placed in petri dishes where Tetranychus urticae (adult mite) and Aphis craccivora (adult aphid) were placed, respectively; water bamboo leaves were soaked in liquids of different concentrations for about 20 seconds, air-dried and then placed in petri dishes where 4th instar Chilo suppressalis were placed, respectively. Each petri dish was placed with 10 insects, covered and then stored at 25° C. in a constant temperature room. The number of dead insects were checked after 48 h. The dead insect rate was calculated by the formula: Death rate (%)=(Number of dead insects/Number of test insects)×100. Furthermore, the experiment was conducted in two replications.
# [2] = test system: Spodoptera exigua; test: Insecticidal activity assay, kale leaf dip, 3rd instar larvae; conditions: liquid concentration 0.3 ppm, 48 h
# [3] = test system: Aphis craccivora; test: Insecticidal activity assay, peanut leaf dip, adult aphid; conditions: liquid concentration 8.1 ppm, 48 h
# Procedure: as §1
# [4] = test system: Tetranychus urticae; test: Insecticidal activity assay, peanut leaf dip, adult mite; conditions: 48 h
# Procedure: as §1
# [5] = test system: Chilo suppressalis; test: Insecticidal activity assay, water bamboo leaf dip, 4th instar larvae; conditions: liquid concentration 0.4 ppm, 48 h
# Procedure: as §1
# [6] = test system: Spodoptera frugiperda; test: Assay of insecticidal activity of compositions (synergism), 3rd instar; conditions: A 0.1 ppm
# Procedure: as §1
# • Test targets: Spodoptera frugiperda (3rd instar) and Aphis gossypii (adult aphid) […]
# (§2) Different ratios within the selected ratio range were set for toxicity determination, and the optimal ratio was selected according to synergistic effects. When the synergistic effect >0, it indicated a synergistic effect; when the synergistic effect is close to 0, it indicated an addition effect; when the synergistic effect <0, it indicated an antagonistic effect.
# (§3) [formula] • wherein, P1, P2—Death rate by each individual agent in a mixed formulation.
# [7] = test system: Aphis gossypii; test: Assay of insecticidal activity of compositions (synergism), zucchini leaves, adult aphid
# Procedure: as §1
# • Test targets: Spodoptera frugiperda (3rd instar) and Aphis gossypii (adult aphid)
# Referring to the above-mentioned Insecticidal activity assay, when the test target was Aphis gossypii, the zucchini leaves were selected.
# as §2, §3
smiles,measurement,setting,value
COC(=O)C(C)NC(=O)c1ccc(C2=NOC(c3cc(Cl)c(Cl)c(C(F)(F)F)c3)(C(F)(F)F)C2)cc1C(F)(F)F (mixture of isomers) [147 (2R)],Death rate,[1],100%
same,Death rate,[2],100%
same,Death rate,[3],100%
same,Death rate,[4]; liquid concentration 8.1 ppm,100%
same,Death rate,[5],100%
COC(=O)CNC(=O)c1ccc(C2=NO[C@@](c3cc(Cl)c(Cl)c(C(F)(F)F)c3)(C(F)(F)F)C2)cc1C [188 (5S)],Death rate,[1],100%
same,Death rate,[2],100%
same,Death rate,[3],100%
same,Death rate,[4]; liquid concentration 8.1 ppm,100%
same,Death rate,[5],100%
CC(C)=NOC(=O)[C@@H](C)NC(=O)c1ccc(C2=NOC(c3cc(Cl)c(Cl)c(C(F)(F)F)c3)(C(F)(F)F)C2)cc1C (stereo partly drawn) [Compound 80 (2R)],Death rate,[1],100%
same,Death rate,[2],100%
same,Death rate,[3],100%
same,Death rate,[4]; liquid concentration 8.1 ppm,100%
same,Death rate,[5],100%
COC(=O)[C@@H](C)NC(=O)c1ccc(C2=NOC(c3cc(Cl)c(Cl)c(C(F)(F)F)c3)(C(F)(F)F)C2)cc1Cl (stereo partly drawn) [Compound 144 (2R)],Death rate,[1],100%
same,Death rate,[2],100%
same,Death rate,[3],100%
same,Death rate,[4]; liquid concentration 8.1 ppm,100%
same,Death rate,[5],100%
"COC(=O)C(C)NC(=O)c1ccc(C2=NOC(c3cc(Cl)c(F)c(C(F)(F)F)c3)(C(F)(F)F)C2)cc1C [Compound 2 (5S, 2R)]",Death rate,[1],100%
same,Death rate,[2],100%
same,Death rate,[3],100%
same,Death rate,[4]; liquid concentration 0.9 ppm,100%
same,Death rate,[5],100%
"COC(=O)[C@@H](C)NC(=O)c1ccc(C2=NOC(c3cc(Cl)cc(Cl)c3)(C(F)(F)F)C2)cc1C (some centres unmarked) [Control compound A, reference compound]",Death rate,[1],70%
same,Death rate,[2],30%
same,Death rate,[3],20%
same,Death rate,[4]; liquid concentration 8.1 ppm,25%
same,Death rate,[5],40%
COC(=O)[C@@H](C)NC(=O)c1ncc(C2=NOC(c3cc(Cl)c(Cl)c(C(F)(F)F)c3)(C(F)(F)F)C2)cc1C (stereo partly drawn) [Compound 154 (2R)],Death rate,[1],100%
same,Death rate,[2],77%
same,Death rate,[3],93%
same,Death rate,[4]; liquid concentration 0.9 ppm,100%
same,Death rate,[5],100%
COC(=O)[C@@H](C)NC(=O)c1ccc(C2=NOC(c3cc(Cl)c(Cl)c(C(F)(F)F)c3)(C(F)(F)F)C2)cc1C (stereo partly drawn) [Compound 3 (2R)],Death rate,[1],100%
same,Death rate,[2],77%
same,Death rate,[3],93%
same,Death rate,[4]; liquid concentration 0.9 ppm,100%
same,Death rate,[5],100%
same,Death rate by individual A,[6],72%
same,Death rate by individual A,[7]; A 0.1 ppm,38%
COC(=O)C(C)NC(=O)c1ccc(C2=NOC(c3cc(Cl)c(F)c(C(F)(F)F)c3)(C(F)(F)F)C2)cc1C (mixture of isomers) [2 (2R)],Death rate,[1],100%
same,Death rate,[2],90%
same,Death rate,[3],90%
same,Death rate,[4]; liquid concentration 0.9 ppm,100%
same,Death rate,[5],100%
COC(=O)C(C)NC(=O)c1ccc(C2=NOC(c3cc(Cl)cc(C(F)(F)F)c3)(C(F)(F)F)C2)cc1C (mixture of isomers) [1 (2R)],Death rate,[1],100%
same,Death rate,[2],90%
same,Death rate,[3],83%
same,Death rate,[4]; liquid concentration 8.1 ppm,83%
same,Death rate,[5],100%
"C[C@]1(COC(=O)C2CC2)[C@@H]2C[C@H](O)[C@@]3(C)Oc4cc(-c5cccnc5)oc(=O)c4[C@H](O)[C@@H]3[C@@]2(C)CC[C@@H]1OC(=O)C1CC1 [Afidopyropen, reference compound]",Death rate by individual B,[7]; B 1 ppm,68%
"CN/C(=N\[N+](=O)[O-])NCc1cnc(Cl)s1 [Clothianidin, reference compound]",pest or weed control at 5 µg/mL,"[7]; in Cucurbita pepo, 48 h, B 5 ppm, read-out: Death rate by individual B",42%
CCc1cc(C2=NOC(c3cc(Cl)c(Cl)c(C(F)(F)F)c3)(C(F)(F)F)C2)ccc1C(=O)NC(C)C(=O)OC (mixture of isomers) [140 (2R)],Death rate,[1],100%
same,Death rate,[2],100%
same,Death rate,[3],100%
same,Death rate,[4]; liquid concentration 8.1 ppm,100%
same,Death rate,[5],100%
